# Patent US10947243B2, “Heteroaryl SYK inhibitors” (Boehringer Ingelheim International GmbH, priority 2014, dated 2021)
# Read-outs that look alike come from different tables or passages of the source.
# Experiments:
# [1] = Human Liver Microsomal Stability Test; type: in vitro ADME; settings: human liver microsomes
# Experimental: The metabolic degradation for a specific SYK-inhibitor is performed at 37° C. with pooled human liver microsomes (human liver microsomes are commercially available as “BD UltraPool™” by Corning Life Sciences, Fogostraat 12, 1060 LJ Amsterdam, The Netherlands). The final incubation volume of 100 μl per time point contains TRIS buffer pH 7.6 at RT (0.1 M), magnesium chloride (5 mM), microsomal protein (1 mg/ml) and the test compound at a final concentration of 1 μM.
# Following a short preincubation period at 37° C., the reaction is initiated by addition of beta-nicotinamide adenine dinucleotide phosphate in its reduced form (NADPH, 1 mM) and terminated by transfering an aliquot into solvent after different time points. Additionally, the NADPH-independent degradation is monitored in incubations without NADPH, terminated at the last time point.
# The quenched (terminated) incubations are then pelleted by centrifugation (10000 g, 5 min).
# An aliquot of the supernatant is assayed by LC-MS/MS for the remaining amount of parent compound. The half-life (t½ INVITRO) is determined by the slope of the semilogarithmic plot of the concentration-time profile.
# The intrinsic clearance (CL_[…]) is calculated by considering the amount of protein in the incubation: CL_[…] [μl/min/mg protein]=(Ln 2/(t½INVITRO [min]*protein content [mg/ml]))*1000
# The protein content [mg/ml] was determined with the “Bicinchoninic Acid Kit” of Sigma Aldrich (commercially available).
# The upscaled intrinsic Clearance (CL_UP_INT) is calcuated by considering the liver weight [g liver/kg body weight] and the microsomal recovery [mg protein/g liver]: CL_UP_INT [ml/min/kg]=0.001*CL_[…]*liver weight*microsomal recovery • with microsomal recovery=45 mg protein/g liver • with liver weight=25.7 g liver/kg body weight
# The percent hepatic blood flow (% Qh) is finally calculated by considering the human liver blood flow Q [ml/min/kg]: % Qh [%]=((Q*CL_UP_INT)/(Q+CL_UP_INT)/Q)*100 • with liver blood flow (Q)=20.7 ml/min/kg.
# [2] = target: FLT3 (Homo sapiens (Human), UniProt P36888); test: FLT3 Kinase Test (Z'-LYTE); type: biochemical
# Sequence of FLT3 (P36888 564-958): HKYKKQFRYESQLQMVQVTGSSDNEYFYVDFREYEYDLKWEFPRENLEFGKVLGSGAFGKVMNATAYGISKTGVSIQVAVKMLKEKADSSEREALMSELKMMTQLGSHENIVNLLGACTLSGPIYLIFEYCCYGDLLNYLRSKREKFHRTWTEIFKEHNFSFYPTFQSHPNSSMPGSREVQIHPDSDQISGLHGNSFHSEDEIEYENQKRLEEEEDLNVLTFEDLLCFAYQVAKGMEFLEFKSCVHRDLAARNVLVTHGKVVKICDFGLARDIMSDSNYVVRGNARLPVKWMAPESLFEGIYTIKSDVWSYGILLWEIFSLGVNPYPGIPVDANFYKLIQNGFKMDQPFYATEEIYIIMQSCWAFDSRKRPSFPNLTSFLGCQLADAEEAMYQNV
# Experimental: The activity of FLT3 is measured using the Z′-LYTE™ assay technology from Invitrogen (#PV3191)
# The reaction is started by addition of 2.5 μl of the 4×ATP solution.
# Positive controls are reaction mixtures containing no test compound; negative controls (blanks) are reaction mixtures containing no kinase. As a further control, the phosphopeptide solution is added to wells without kinase (=100% phosphorylation control).
# The reaction is performed for 1 h at room temperature before 5 μl of the development solution is added. After a further incubation for 1 h at room temperature 5 μl of the stop reagent is added.
# The output text file is evaluated in an “MS-Excel-VB-Makro” and “GraphPadPrism” (Version 5) (GraphPad Software Inc.) is used to calculate the results. Data for the inhibition of FLT3 are reported in M. data for the inhibition of the protease are reported in % CTL.
# [3] = target: Recombinant human Aurora B (amino acids 1-344) (Homo sapiens (Human), UniProt Q96GD4); test: Aurora B Kinase Test (ADP Glo luminescence); type: biochemical
# Sequence of Recombinant human Aurora B (amino acids 1-344) (Q96GD4 whole entry, the tested form may be a part): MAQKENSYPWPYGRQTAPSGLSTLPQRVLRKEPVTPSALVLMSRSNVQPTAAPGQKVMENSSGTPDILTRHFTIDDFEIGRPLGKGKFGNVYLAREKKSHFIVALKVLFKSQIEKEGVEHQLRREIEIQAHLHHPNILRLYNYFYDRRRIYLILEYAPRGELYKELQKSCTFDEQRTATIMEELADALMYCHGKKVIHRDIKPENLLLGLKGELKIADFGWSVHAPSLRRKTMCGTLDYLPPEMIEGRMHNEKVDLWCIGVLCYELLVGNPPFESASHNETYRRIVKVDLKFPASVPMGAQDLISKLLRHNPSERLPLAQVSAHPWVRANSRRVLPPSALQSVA
# Experimental: The activity of the Aurora B kinase protein was determined using the ADP Glo® Luminescence Kinase test (Promega; V9103X).
# Serial Dilution is done in 1:10 steps in 100% DMSO.
# Then 20 μl Kinase detection mix (Detection Buffer #V913B Promega; Kinase Detection Substrate #V914B Promega) were added and incubated for 40 minutes at room temperature.
# The output file of the reader is a csv file that contains the well number and measured RLU. For data evaluation and calculation, the measurement of the negative control was set as 0% ctrl and the measurement of the positive control was set as 100% ctrl. Based on this values the % value for the measurement of each substance concentration was calculated using an Assay Explorer software (Accelrys). Normally, the % ctrl values calculated are between 0% and 100% values but may also occur outside these limits in individual cases based on variability or compound characteristics. The IC50 values were calculated from the % ctrl values using Assay Explorer software. Calculation: [y=(a−d)/(1+(x/c)^b)+d], a=low value, d=high value; x=conc M; c=IC50 M; b=hill; y=% ctrl.
# [4] = compounds of the invention (own Example numbers)
# [5] = comparison compounds, Example numbers of WO 2013/014060
# [6] = read-out: AURB-inhibition IC50-value
# [7] = comparison compounds, Example numbers of WO 2011/092128
molecule,measurement,setting,value
"COc1cc(-c2cc3nn(C)cc3c(O[C@H](C)[C@H]3CNC(=O)C3)n2)cc(OC)c1OC [Example 52, (4R)-4-[(1R)-1-[2-methyl-6-(3,4,5-trimethoxyphenyl)-pyrazolo[4,3-c]pyridin-4-yl]oxyethyl]pyrrolidin-2-one]",microsomal stability Cl [% Qh],[1]; [4],<23 % Qh
C[C@@H](Oc1cc(-c2ccc(C(=O)N3CCN(C)CC3)cc2)cc2ncccc12)[C@H]1CNC(=O)C1 [76 of WO 2013/014060],microsomal stability Cl [% Qh],[1]; percent hepatic blood flow,<23 % Qh
"(4R)-4-[(1R)-1-[6-[1-(Difluoromethyl)imidazol-4-yl]-2-methyl-pyrazolo[4,3-c]pyridin-4-yl]oxyethyl]pyrrolidin-2-one [Example 83]",IC50,[2]; read-out: FLT3-inhibition IC50-value,25.6 µM
Cc1nc2cc(-c3cc(O[C@H](C)[C@H]4CNC(=O)C4)c4cccnc4c3)ccc2n1C [compound 105],microsomal stability Cl [% Qh],[1]; [5],64 % Qh
"C[C@@H](Oc1cc(-c2ccc(N3CCOCC3)cc2)cc2nn(C)cc12)[C@H]1CNC(=O)C1 [Example 22, (4R)-4-[(1R)-1-[2-Methyl-6-(4-morpholinophenyl)indazol-4-yl]oxyethyl]-pyrrolidin-2-one]",microsomal stability Cl [% Qh],[1]; percent hepatic blood flow,25 % Qh
"COc1cc(-c2cc(O[C@H](C)[C@H]3CNC(=O)C3)c3cccnc3c2)cc(OC)c1OC [Example 2 of WO 2013/014060, reference compound]",microsomal stability Cl [% Qh],[1]; [5],81 % Qh
"C[C@@H](Oc1cc(-c2ccn(C)n2)cc2nn(C)cc12)[C@H]1CNC(=O)C1 [Example 14, (4R)-4-[(1R)-1-[2-methyl-6-(1-methylpyrazol-3-yl)indazol-4-yl]oxyethyl]-pyrrolidin-2-one]",IC50,[3]; [6],> 50 µM
COc1cc(-c2cc(O[C@H](C)[C@H]3CNC(=O)C3)c3cccnc3c2)ccc1C(F)(F)F [compound 102],microsomal stability Cl [% Qh],[1]; [5],54 % Qh
"C[C@@H](Oc1cc(-c2cnn(C(C)(C)C)c2)cc2nn(C)cc12)[C@H]1CNC(=O)C1 [Example 18, (4R)-4-[(1R)-1-[6-(1-tert-butylpyrazol-4-yl)-2-methyl-indazol-4-yl]oxyethyl]pyrrolidin-2-one]",microsomal stability Cl [% Qh],[1]; [4],<23 % Qh
"C[C@@H](Oc1nc(-c2ccc(N3CCN(C)CC3)cc2)cc2nn(C)cc12)[C@H]1CNC(=O)C1 [Example 67, (4R)-4-[(1R)-1-[2-methyl-6-[4-(4-methylpiperazin-1-yl)phenyl]pyrazolo[4,3-c]pyridin-4-yl]oxyethyl]-pyrrolidin-2-one]",microsomal stability Cl [% Qh],[1]; percent hepatic blood flow,34 % Qh
"COc1cc(-c2cc3nn(C)cc3c(O[C@H](C)[C@H]3CNC(=O)C3)n2)ccc1O [Example 8, (4R)-4-[(1R)-1-[6-(4-Hydroxy-3-methoxy-phenyl)-2-methyl-pyrazolo[4,3-c]pyridin-4-yl]oxyethyl]pyrrolidin-2-one]",microsomal stability Cl [% Qh],[1]; [7],77 % Qh
same,microsomal stability Cl [% Qh],[1]; [5],58 % Qh
same,microsomal stability Cl [% Qh],[1]; [4],<23 % Qh
same,IC50,"[3]; comparison compounds, Example numbers of WO 2013/014060, read-out: IC50 in μM (AURB-Inhibition)",0.643 µM
same,IC50,"[2]; comparison compounds, Example numbers of WO 2013/014060, read-out: IC50 in μM (FLT3-Inhibition)",0.369 µM
"COc1ccc(-c2cc3nn(C)cc3c(O[C@H](C)[C@H]3CNC(=O)C3)n2)cn1 [Example 59, (4R)-4-[(1R)-1-[6-(6-methoxy-3-pyridyl)-2-methyl-pyrazolo-[4,3-c]pyridin-4-yl]oxyethyl]-pyrrolidin-2-one]",microsomal stability Cl [% Qh],[1]; percent hepatic blood flow,<23 % Qh
"C[C@@H](Oc1nc(-c2ccc3c(cnn3C)c2)cc2nn(C)cc12)[C@H]1CNC(=O)C1 [Example 62, (4R)-4-[(1R)-1-[2-methyl-6-(1-methylindazol-5-yl)pyrazolo[4,3-c]pyridin-4-yl]oxyethyl]pyrrolidin-2-one]",microsomal stability Cl [% Qh],[1]; [4],<23 % Qh
Cc1nc2cc(-c3cc(O[C@H](C)[C@H]4CNC(=O)C4)c4cccnc4c3)ccc2[nH]1 [compound 109],microsomal stability Cl [% Qh],[1]; [5],41 % Qh
COc1cc(-c2cc3ncccc3c(O[C@H](C)[C@H]3CNC(=O)C3)n2)ccc1OC(F)(F)F [compound 4],microsomal stability Cl [% Qh],[1]; [7],33 % Qh
"C[C@@H](Oc1cc(-c2ccc(N3CCN(C)CC3)cc2)cc2nn(C)cc12)[C@H]1CNC(=O)C1 [Example 26, (4R)-4-[(1R)-1-[2-methyl-6-[4-(4-methylpiperazin-1-yl)phenyl]indazol-4-yl]oxyethyl]pyrrolidin-2-one]",microsomal stability Cl [% Qh],[1]; percent hepatic blood flow,<23 % Qh
Cc1nc(C)c2cc(-c3cc(O[C@H](C)[C@H]4CNC(=O)C4)c4cccnc4c3)ccc2n1 [compound 107],microsomal stability Cl [% Qh],[1]; [5],38 % Qh
Cc1nc2ccc(-c3cc(O[C@H](C)[C@H]4CNC(=O)C4)c4cccnc4c3)cc2s1 [compound 85],microsomal stability Cl [% Qh],[1]; [5],49 % Qh
"C[C@@H](Oc1cc(-c2ccc3c(cnn3C)c2)cc2nn(C)cc12)[C@H]1CNC(=O)C1 [Example 28, (4R)-4-[(1R)-1-[2-methyl-6-(1-methylindazol-5-yl)indazol-4-yl]oxyethyl]pyrrolidin-2-one]",microsomal stability Cl [% Qh],[1]; [4],<23 % Qh
"C[C@@H](Oc1nc(-c2ccc3cnn(C)c3c2)cc2nn(C)cc12)[C@H]1CNC(=O)C1 [Example 72, (4R)-4-[(1R)-1-[2-methyl-6-(1-methylindazol-6-yl)pyrazolo[4,3-c]pyridin-4-yl]oxyethyl]pyrrolidin-2-one]",microsomal stability Cl [% Qh],[1]; [4],<23 % Qh
"C[C@@H](Oc1nc(-c2ccc(C(F)F)nc2)cc2nn(C)cc12)[C@H]1CNC(=O)C1 [Example 51, (4R)-4-[(1R)-1-[6-[6-(difluoromethyl)-3-pyridyl]-2-methyl-pyrazolo[4,3-c]pyridin-4-yl]oxyethyl]pyrrolidin-2-one]",microsomal stability Cl [% Qh],[1]; percent hepatic blood flow,<23 % Qh
"CC(C)Oc1ccc(-c2cc(O[C@H](C)[C@H]3CNC(=O)C3)c3cn(C)nc3c2)cn1 [Example 27, (4R)-4-[(1R)-1-[6-(6-isopropoxy-3-pyridyl)-2-methyl-indazol-4-yl]oxyethyl]pyrrolidin-2-one]",microsomal stability Cl [% Qh],[1]; percent hepatic blood flow,<23 % Qh
"COc1cc(-c2cc3ncccc3c(O[C@H](C)[C@H]3CNC(=O)C3)n2)cc(OC)c1Cl [Example 8 of WO 2011/092128, reference compound]",microsomal stability Cl [% Qh],[1]; [7],77 % Qh
"C[C@@H](Oc1nc(-c2ccc3cc(C(=O)N(C)C)n(C)c3c2)cc2nn(C)cc12)[C@H]1CNC(=O)C1 [Example 56, N,N,1-trimethyl-6-[2-methyl-4-[(1R)-1-[(3R)-5-oxopyrrol-idin-3-yl]ethoxy]pyrazolo[4,3-c]pyridin-6-yl]indole-2-carboxamide]",IC50,[3]; [6],> 50 µM
C[C@@H](Oc1cc(-c2ccccn2)cc2ncccc12)[C@H]1CNC(=O)C1 [6 of WO 2013/014060],microsomal stability Cl [% Qh],[1]; percent hepatic blood flow,24 % Qh
C[C@@H](Oc1cc(-c2ccc3c(c2)CNCC3)cc2ncccc12)[C@H]1CNC(=O)C1 [101 of WO 2013/014060],microsomal stability Cl [% Qh],[1]; percent hepatic blood flow,<23 % Qh
"C[C@@H](Oc1cc(-c2ccc3c(c2)c(N)nn3C)cc2nn(C)cc12)[C@H]1CNC(=O)C1 [Example 36, (4R)-4-[(1R)-1-[6-(3-amino-1-methyl-indazol-5-yl)-2-methyl-indazol-4-yl]oxyethyl]pyrrolidin-2-one]",microsomal stability Cl [% Qh],[1]; [4],<23 % Qh
C[C@@H](Oc1cc(-c2ccc(CN3CCOCC3)cc2)cc2ncccc12)[C@H]1CNC(=O)C1 [43 of WO 2013/014060],microsomal stability Cl [% Qh],[1]; percent hepatic blood flow,<23 % Qh
C[C@@H](Oc1nc(-c2ccc(N3CCOCC3)nc2)cc2ncccc12)[C@H]1CNC(=O)C1 [45 of WO 2011/092128],microsomal stability Cl [% Qh],[1]; percent hepatic blood flow,53 % Qh
